Results from patent US6387278B1, “Increasing subterranean mobilization of organic contaminants and petroleum by aqueous thermal oxidation” (The Regents of the University of California, priority 2000, dated 2002).

What was measured:
[1] = hydrous pyrolysis/oxidation of TCE dissolved in water with dissolved oxygen; format: physicochemical; conditions: temperatures above 90° C.
Description: (§1) The static autoclave experiments are run in Dickson-type, gold-bag rocking autoclaves. The autoclave reaction vessel uses a flexible gold bag sealed with a passivated titanium head and is contained within a large steel pressure vessel. The autoclave design allows periodic sampling of the reaction cell under in situ conditions throughout the course of an experiment without disturbing the temperature and pressure of the run. During the experiment the solution contacts only gold and passivated titanium so that unwanted surface catalytic effects are eliminated. Various combinations of solid, liquid or gaseous catalysts or oxidants are introduced into the reactor in order to study their effects on reaction mechanisms and rates. The sampled fluids and gases are analyzed using a variety of analytical techniques including ICP-ES, IC, GC (using purge and trap), gas MS, GC/MS, and HPLC.
All experiments are conducted in non-reactive flexible gold bag hydrothermal systems, so that complications due to experimental artifacts from catalysis by the equipment itself are avoided, and both temperature and pressure can be precisely controlled. Many samples can be taken and tested as the reaction proceeds without affecting the conditions of the reaction itself. […]

[2] = solubility of TCE in water as a function of temperature (Dickson-type autoclave); format: physicochemical; conditions: at 298 K; calculated from solubility measured from 298 to 398 K at constant pressure
Description: as §1
A Dickson-type autoclave, as described above, equipped with a precision high pressure liquid chromatography pump to control pressure was used to measure the solubility of TCE in water as a function of temperature from 298 to 398 K at constant pressure. Obtained results were used to calculate the partial molal thermodynamic quantities for the dissolution reaction of TCE in water at 298 K: ΔGsoln=11.1 (±0.71) KJ/mol, ΔHsoln=3.075 (±0.525) KJ/mol and ΔSsoln=−28.29 (±1.61) J/mol-K.

Structure (SMILES): ClC=C(Cl)Cl [TCE, trichloroethylene]
- decrease of concentration by hydrous pyrolysis/oxidation ([1]; initial runs with high starting concentrations (up to ≧600 ppm)): ≤ 10,000 fold
- concentration eventually reached (drinking water MCL) ([1]; initial runs with high starting concentrations): 5 ppb
- ΔGsoln, partial molal quantity for the dissolution reaction in water [2]: 11.1 (±0.71) KJ/mol
- ΔHsoln, partial molal quantity for the dissolution reaction in water [2]: 3.075 (±0.525) KJ/mol
- ΔSsoln, partial molal quantity for the dissolution reaction in water [2]: −28.29 (±1.61) J/mol-K
